Assay results reported in publication PMC9896412, “The role of invariant surface glycoprotein 75 in xenobiotic acquisition by African trypanosomes” (Microbial Cell, 2023).

Experiments:
[1] = biological target: T1, invariant surface glycoprotein 75 (ISG75) (Trypanosoma brucei, UniProt Q1WK95); experiment: ITC (tag-free protein from S2 cells); type: binding
[2] = biological target: T1, invariant surface glycoprotein 75 (ISG75); experiment: biochemical

Compound	Kd [1]	Kd [2]
Cc1cc(-c2ccc(/N=N/c3c(S(=O)(=O)O)cc4cc(S(=O)(=O)O)cc(N)c4c3O)c(C)c2)ccc1/N=N/c1c(S(=O)(=O)O)cc2cc(S(=O)(=O)O)cc(N)c2c1O [trypan blue]	600 nM	–
Cc1ccc(C(=O)Nc2ccc(S(=O)(=O)O)c3cc(S(=O)(=O)O)cc(S(=O)(=O)O)c23)cc1NC(=O)c1cccc(NC(=O)Nc2cccc(C(=O)Nc3cc(C(=O)Nc4ccc(S(=O)(=O)O)c5cc(S(=O)(=O)O)cc(S(=O)(=O)O)c45)ccc3C)c2)c1 [suramin]	–	3200 nM
